Source: PubChem BioAssay AID266 (DTP/NCI, 2004)
Results filed as inconclusive are left out.

Tested on: Nude mice, LX-1 lung xenograft intrarenal, tumor weight T/C
Experiment: NCI In Vivo Anticancer Drug Screen. Data for tumor model Human Lung LX-1 Xenograft (intrarenal inoculation) in NU/NU BALB/C (nude) mice
Details: endpoint: mean tumor weight change, higher = larger tumour
Experimental: The antitumor activity of compounds was measured in mice bearing transplantable tumors. Survival or tumor size were measured and the results are expressed as the measurement made in the treated group (T) divided by the measurement made in the vehicle treated control group (C). The tumor model used in this assay is Human Lung LX-1 Xenograft (intrarenal inoculation) in NU/NU BALB/C (nude) mice

[1] = dose: 600.0 mg/kg/injection, schedule: Q04DX003 (ip), vehicle: saline
[2] = dose: 300.0 mg/kg/injection, schedule: Q04DX003 (sc), vehicle: saline with Tween-80
[3] = dose: 600.0 mg/kg/injection, schedule: Q04DX003 (sc), vehicle: saline with Tween-80
[4] = dose: 1200.0 mg/kg/injection, schedule: Q04DX003 (sc), vehicle: saline with Tween-80
[5] = dose: 1.25 mg/kg/injection, schedule: Q04DX003 (sc), vehicle: saline
[6] = dose: 5.0 mg/kg/injection, schedule: Q04DX003 (sc), vehicle: saline
[7] = dose: 37.5 mg/kg/injection, schedule: Q04DX003 (sc), vehicle: saline
[8] = dose: 75.0 mg/kg/injection, schedule: Q04DX003 (sc), vehicle: saline
[9] = dose: 2400.0 mg/kg/injection, schedule: Q04DX003 (sc), vehicle: saline with Tween-80

NC(=O)CCC(N)C(=O)O (configuration not stated)
T/C (dose: 75.0 mg/kg/injection, schedule: Q04DX003 (ip), vehicle: suspension in saline): 88 % of control | T/C (dose: 150.0 mg/kg/injection, schedule: Q04DX003 (ip), vehicle: suspension in saline): 77 % of control | T/C (dose: 300.0 mg/kg/injection, schedule: Q04DX003 (ip), vehicle: suspension in saline): 93 % of control | T/C (dose: 600.0 mg/kg/injection, schedule: Q04DX003 (ip), vehicle: suspension in saline): 100 % of control | T/C (dose: 1200.0 mg/kg/injection, schedule: Q04DX003 (ip), vehicle: suspension in saline): 87 % of control

CCOC(=O)C(N)CSC(=O)NC (configuration not stated)
T/C (dose: 150.0 mg/kg/injection, schedule: Q04DX003 (ip), vehicle: saline): 82 % of control | T/C (dose: 300.0 mg/kg/injection, schedule: Q04DX003 (ip), vehicle: saline): 52 % of control | T/C [1]: 102 % of control

CN1CCc2c(c3ccccc3c3ccccc23)C1
T/C (dose: 150.0 mg/kg/injection, schedule: Q04DX003 (sc), vehicle: Klucel (hydroxypropylcellulose) (HPC)): 58 % of control | T/C (dose: 300.0 mg/kg/injection, schedule: Q04DX003 (sc), vehicle: Klucel (hydroxypropylcellulose) (HPC)): 55 % of control | T/C (dose: 600.0 mg/kg/injection, schedule: Q04DX003 (sc), vehicle: Klucel (hydroxypropylcellulose) (HPC)): 48 % of control

CC1(C)CC2(C)OC2C2(C1)N=NC(=Nc1ccccc1)O2 (configuration not stated)
T/C [2]: 104 % of control | T/C [3]: 61 % of control | T/C [4]: 91 % of control

FC(F)(F)c1nc2nc(Cl)c(Cl)nc2[nH]1
T/C (dose: 75.0 mg/kg/injection, schedule: Q04DX003 (sc), vehicle: saline with Tween-80): 116 % of control | T/C (dose: 150.0 mg/kg/injection, schedule: Q04DX003 (sc), vehicle: saline with Tween-80): 74 % of control | T/C [2]: 68 % of control

Cc1ccc(S(=O)(=O)N/N=C/C(Br)=C(/Br)C(=O)O)cc1
T/C [5]: 122 % of control | T/C [6]: 115 % of control | T/C (dose: 10.0 mg/kg/injection, schedule: Q04DX003 (sc), vehicle: saline): 82 % of control

CC[As](=O)(O)CC
T/C (dose: 25.0 mg/kg/injection, schedule: Q04DX003 (sc), vehicle: saline): 77 % of control | T/C (dose: 50.0 mg/kg/injection, schedule: Q04DX003 (sc), vehicle: saline): 82 % of control | T/C (dose: 100.0 mg/kg/injection, schedule: Q04DX003 (sc), vehicle: saline): 51 % of control | T/C (dose: 200.0 mg/kg/injection, schedule: Q04DX003 (sc), vehicle: saline): 70 % of control

C/C=C(\C)c1cc(=O)c2c(C)cc3c(c2o1)C(=O)c1c(O)c(C2CC(C)(N(C)C)C(OC(C)=O)C(C)O2)cc(C2CC(N(C)C)C(O)C(C)O2)c1C3=O (configuration not stated)
T/C (dose: 0.63 mg/kg/injection, schedule: Q04DX003 (sc), vehicle: saline): 68 % of control | T/C [5]: 48 % of control | T/C (dose: 2.5 mg/kg/injection, schedule: Q04DX003 (sc), vehicle: saline): 45 % of control | T/C [6]: 51 % of control

Nc1ncn(C2CC(O)C(CO)O2)c(=O)n1 (configuration not stated)
T/C (dose: 0.75 mg/kg/injection, schedule: Q01DX010 (sc), vehicle: saline): 85 % of control

c1ccc2c(c1)[As]=c1ccccc1=[As]2 (configuration not stated)
T/C (dose: 18.75 mg/kg/injection, schedule: Q04DX003 (sc), vehicle: saline): 58 % of control | T/C [7]: 46 % of control | T/C [8]: 50 % of control | T/C (dose: 150.0 mg/kg/injection, schedule: Q04DX003 (sc), vehicle: saline): 40 % of control

N=c1c(C(=O)OCc2ccccc2)ncc(CCl)n1O
T/C [2]: 87 % of control | T/C [3]: 83 % of control | T/C [4]: 91 % of control | T/C [9]: 81 % of control

O=C(CN1CCOCC1)Nc1nc(-c2ccc(Cl)cc2)cs1
T/C (dose: 100.0 mg/kg/injection, schedule: Q04DX003 (ip), vehicle: saline with Tween-80): 118 % of control | T/C (dose: 200.0 mg/kg/injection, schedule: Q04DX003 (ip), vehicle: saline with Tween-80): 87 % of control | T/C (dose: 400.0 mg/kg/injection, schedule: Q04DX003 (ip), vehicle: saline with Tween-80): 106 % of control | T/C (dose: 800.0 mg/kg/injection, schedule: Q04DX003 (ip), vehicle: saline with Tween-80): 89 % of control

CC(=O)C(O)N1C(=O)C=CC1=O (configuration not stated)
T/C (dose: 2.5 mg/kg/injection, schedule: Q01DX010 (sc), vehicle: saline): 73 % of control | T/C (dose: 5.0 mg/kg/injection, schedule: Q01DX010 (sc), vehicle: saline): 92 % of control | T/C (dose: 10.0 mg/kg/injection, schedule: Q01DX010 (sc), vehicle: saline): 101 % of control

N=[N+]=CC(=O)CCC(NC(=O)C(CCC(=O)C=[N+]=N)NC(=O)CCC(N)C(=O)O)C(=O)O (configuration not stated)
T/C (dose: 0.2 mg/kg/injection, schedule: Q02DX005 (sc), vehicle: water): 114 % of control | T/C (dose: 0.4 mg/kg/injection, schedule: Q02DX005 (sc), vehicle: water): 73 % of control | T/C (dose: 0.8 mg/kg/injection, schedule: Q02DX005 (sc), vehicle: water): 26 % of control | T/C (dose: 1.6 mg/kg/injection, schedule: Q02DX005 (sc), vehicle: water): 74 % of control | T/C (dose: 3.2 mg/kg/injection, schedule: Q02DX005 (sc), vehicle: water): 65 % of control | T/C (dose: 6.4 mg/kg/injection, schedule: Q02DX005 (sc), vehicle: water): 41 % of control

CC1CCC(NC(=O)N(CCCl)N=O)CC1 (configuration not stated)
T/C (dose: 3.13 mg/kg/injection, schedule: Q01DX010 (sc), vehicle: Klucel (hydroxypropylcellulose) (HPC)): 67 % of control | T/C (dose: 6.25 mg/kg/injection, schedule: Q01DX010 (sc), vehicle: Klucel (hydroxypropylcellulose) (HPC)): 3 % of control

CC(C#N)(C#N)N=Nc1ccc(Cl)cc1Cl
T/C [3]: 124 % of control | T/C [4]: 86 % of control | T/C [9]: 102 % of control

CN(N=O)C(N)=O
T/C (dose: 12.5 mg/kg/injection, schedule: Q01DX010 (sc), vehicle: saline with Tween-80): -68 % of control | T/C (dose: 25.0 mg/kg/injection, schedule: Q01DX010 (sc), vehicle: saline with Tween-80): -54 % of control | T/C (dose: 50.0 mg/kg/injection, schedule: Q01DX010 (sc), vehicle: saline with Tween-80): -69 % of control

NC(=O)NO
T/C (dose: 200.0 mg/kg/injection, schedule: Q01DX010 (sc), vehicle: saline): 60 % of control | T/C (dose: 400.0 mg/kg/injection, schedule: Q01DX010 (sc), vehicle: saline): 105 % of control

O=C(CCCN1CCC(C(O)c2ccc(F)cc2)CC1)c1ccc(F)cc1 (configuration not stated)
T/C (dose: 12.5 mg/kg/injection, schedule: Q04DX003 (ip), vehicle: saline with Tween-80): 64 % of control | T/C (dose: 25.0 mg/kg/injection, schedule: Q04DX003 (ip), vehicle: saline with Tween-80): 68 % of control | T/C (dose: 50.0 mg/kg/injection, schedule: Q04DX003 (ip), vehicle: saline with Tween-80): 69 % of control

CCC1OC(OC)C=CC1=O (configuration not stated)
T/C [7]: 90 % of control | T/C [8]: 99 % of control

CC(Oc1ccccc1-c1ccccc1)C(=O)N(C)C (configuration not stated)
T/C [3]: 100 % of control | T/C [4]: 116 % of control | T/C [9]: 107 % of control

[N-]=[N+]=[N-]
T/C (dose: 6.0 mg/kg/injection, schedule: Q04DX003 (ip), vehicle: water): 68 % of control | T/C (dose: 24.0 mg/kg/injection, schedule: Q04DX003 (ip), vehicle: water): 73 % of control

NC(=O)/C=C/C(=O)c1c(Cl)cccc1Cl
T/C (dose: 9.0 mg/kg/injection, schedule: Q04DX003 (sc), vehicle: saline with Tween-80): 83 % of control | T/C (dose: 18.0 mg/kg/injection, schedule: Q04DX003 (sc), vehicle: saline with Tween-80): 79 % of control

OCC(O)C(O)C(O)C(O)CO (configuration not stated)
T/C (dose: 75.0 mg/kg/injection, schedule: Q04DX003 (ip), vehicle: saline): 108 % of control | T/C [1]: 109 % of control | T/C (dose: 1200.0 mg/kg/injection, schedule: Q04DX003 (ip), vehicle: saline): 94 % of control

NC(CNC(=O)CBr)C(=O)O (configuration not stated)
T/C (dose: 75.0 mg/kg/injection, schedule: Q04DX003 (sc), vehicle: water): 105 % of control | T/C (dose: 150.0 mg/kg/injection, schedule: Q04DX003 (sc), vehicle: water): 79 % of control

Cn1cnc([N+](=O)[O-])c1[Se]c1nc(N)nc2nc[nH]c12
T/C (dose: 50.0 mg/kg/injection, schedule: Q01DX010 (sc), vehicle: water): 64 % of control | T/C (dose: 100.0 mg/kg/injection, schedule: Q01DX010 (sc), vehicle: water): 69 % of control

CCCC(=O)Oc1ccc(/C=N/NC(N)=S)nc1
T/C (dose: 100.0 mg/kg/injection, schedule: Q01DX010 (sc), vehicle: saline with Tween-80): 66 % of control | T/C (dose: 200.0 mg/kg/injection, schedule: Q01DX010 (sc), vehicle: saline with Tween-80): 42 % of control | T/C (dose: 400.0 mg/kg/injection, schedule: Q01DX010 (sc), vehicle: saline with Tween-80): 19 % of control
